Measured values as given in ChEMBL document CHEMBL1153185, “Two novel neo-clerodane diterpenoids from Scutellaria barbata” (Bioorg Med Chem Lett, 2010).
Where a name gives a salt, the structure may show the parent alone. The source made the active and inactive calls. No cut-off for these calls is given here.

What was measured:
Format in all cases: functional, cell-based
HL-60 = experiment: Cytotoxicity against human HL60 cells by MTT assay
Lewis lung carcinoma = experiment: Cytotoxicity against mouse LLC by MTT assay
MCF7 = experiment: Cytotoxicity against human MCF7 cells by MTT assay

SMILES | IC50 (HL-60) [µM] | Activity (Lewis lung carcinoma) | Activity (HL-60) | Activity (MCF7)
COc1cccc2c1C(=O)c1c(O)c3c(c(O)c1C2=O)C[C@@](O)(C(=O)CO)C[C@@H]3O[C@H]1C[C@H](N)[C@H](O)[C@H](C)O1 [DOXORUBICIN HYDROCHLORIDE] | 0.18 |  |  | 
C[C@@]12[C@@H](OC(=O)c3cccnc3)[C@H](OC(=O)c3ccccc3)[C@](C)(O)[C@](C)(/C=C/C3=CC(=O)OC3)[C@H]1CC=C[C@]2(C)O |  | inactive | inactive | inactive
CC(=O)O[C@@H](CC1=CC(=O)OC1)[C@]1(C)[C@H]2CCC=C(C)[C@]2(C)[C@@H](OC(=O)c2cccnc2)[C@H](OC(=O)c2ccccc2)[C@]1(C)O [BARBATELLARINES B] | 41.4 |  |  | 
